Key:
HT29 = assay: 72-h MTT cytotoxicity assay HT29; format: cell-based; settings: Homo sapiens, HT-29, 72 h, Table 4
In short: (§1)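 Read-out is MTT formazan dissolved in DMSO after a 4 h dark incubation with dye at 37° C. Before that, cells seeded according to doubling time received a 1/3 dilution series of compound in triplicate for 72 h at 37° C.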

Saos-2 = assay: 72-h MTT cytotoxicity assay Saos-2; format: cell-based; settings: Homo sapiens, SAOS-2, 72 h, Table 4
In short: as §1

CDK4/cyclin D1 = CDK4/cyclin D1 (Homo sapiens, UniProt P11802); assay: Kinase assay CDK4/cyclin D1; format: biochemical; settings: Table 2; read-out: Kinase Inhibition IC50 CDK4 cyclin D1
Sequence of CDK4/cyclin D1 (P11802 whole entry): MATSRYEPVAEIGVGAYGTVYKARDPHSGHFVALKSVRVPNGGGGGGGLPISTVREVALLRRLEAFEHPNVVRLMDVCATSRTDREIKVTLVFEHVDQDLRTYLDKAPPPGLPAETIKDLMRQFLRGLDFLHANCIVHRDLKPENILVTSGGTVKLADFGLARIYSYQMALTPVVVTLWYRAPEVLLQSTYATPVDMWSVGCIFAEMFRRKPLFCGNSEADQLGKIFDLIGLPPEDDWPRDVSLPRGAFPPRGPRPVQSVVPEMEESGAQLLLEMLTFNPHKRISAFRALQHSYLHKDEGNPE
Sequence of CDK4/cyclin D1 (P24385 whole entry partner): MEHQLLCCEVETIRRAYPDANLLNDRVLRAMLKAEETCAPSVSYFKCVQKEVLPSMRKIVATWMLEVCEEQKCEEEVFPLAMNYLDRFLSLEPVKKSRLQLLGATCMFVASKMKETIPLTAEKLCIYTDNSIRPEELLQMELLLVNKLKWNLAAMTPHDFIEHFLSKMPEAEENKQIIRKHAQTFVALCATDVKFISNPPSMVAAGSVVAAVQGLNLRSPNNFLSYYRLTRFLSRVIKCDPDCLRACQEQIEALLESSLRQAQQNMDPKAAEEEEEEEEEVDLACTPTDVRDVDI
In short: (§2)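 Enzyme + substrate in β-glycerophosphate/MOPS/EGTA/DTT buffer, pH 7.4 → Mg/ATP (100 μM ATP, γ-32P) start → 30° C incubation → ice stop → P81 or GF/C filtration, H3PO4 wash → scintillation count.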

PLK-1 = PLK-1 (Homo sapiens, UniProt P53350); assay: Kinase assay PLK-1; format: biochemical; settings: Table 2; read-out: Kinase Inhibition IC50 PLK-1
Sequence of PLK-1 (P53350 whole entry): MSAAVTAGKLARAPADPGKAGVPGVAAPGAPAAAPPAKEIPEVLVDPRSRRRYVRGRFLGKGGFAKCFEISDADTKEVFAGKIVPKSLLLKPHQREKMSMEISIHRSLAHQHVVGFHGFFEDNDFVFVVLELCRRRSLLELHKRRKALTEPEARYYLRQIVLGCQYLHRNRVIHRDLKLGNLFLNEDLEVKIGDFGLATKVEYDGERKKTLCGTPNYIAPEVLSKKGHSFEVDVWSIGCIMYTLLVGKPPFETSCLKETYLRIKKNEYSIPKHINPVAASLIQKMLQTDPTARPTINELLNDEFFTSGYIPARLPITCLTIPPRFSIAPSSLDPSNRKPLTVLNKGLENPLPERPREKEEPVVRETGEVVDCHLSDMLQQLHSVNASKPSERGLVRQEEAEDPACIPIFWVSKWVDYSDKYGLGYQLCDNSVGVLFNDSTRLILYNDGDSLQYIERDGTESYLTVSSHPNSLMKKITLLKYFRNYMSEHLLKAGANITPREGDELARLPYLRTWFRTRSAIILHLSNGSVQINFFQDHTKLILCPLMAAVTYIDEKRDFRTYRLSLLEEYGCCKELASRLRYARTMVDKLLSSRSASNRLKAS
Protocol: (§3) Kinase assays. […] This was achieved by measurement of incorporation of radioactive phosphate from ATP into appropriate polypeptide substrates. Recombinant protein kinases and kinase complexes were produced or obtained commercially. Assays were performed using 96-well plates and appropriate assay buffers (typically 25 mM β-glycerophosphate, 20 mM MOPS, 5 mM EGTA, 1 mM DTT, 1 mM […], pH 7.4), into which were added 2-4 μg of active enzyme with appropriate substrates. The reactions were initiated by addition of Mg/ATP mix (15 mM MgCl2+100 μM ATP with 30-50 kBq per well of [γ-^32P]-ATP) and mixtures incubated as required at 30° C. Reactions were stopped on ice, followed by filtration through p81 filterplates or GF/C filterplates (Whatman Polyfiltronics, Kent, UK). After washing 3 times with 75 mM aq orthophosphoric acid, plates were dried, scintillant added and incorporated radioactivity measured in a scintillation counter (TopCount, Packard Instruments, Pangbourne, Berks, UK). Compounds for kinase assay were made-up as 10 mM stocks in DMSO and diluted into 10% DMSO inrassay buffer.

A549 = assay: 72-h MTT cytotoxicity assay A549; format: cell-based; settings: Homo sapiens, A549, 72 h, Table 4
In short: as §1

CDK2/cyclin E = CDK2/cyclin E (Homo sapiens, UniProt P24941); assay: Kinase assay CDK2/cyclin E; format: biochemical; settings: Table 2; read-out: Kinase Inhibition IC50 CDK2 cyclin E
In short: as §2

GSK-3β = GSK-3β (Homo sapiens, UniProt P49841); assay: Kinase assay GSK-3β; format: biochemical; settings: Table 2; read-out: Kinase Inhibition IC50 GSK-3β
Sequence of GSK-3β (P49841 whole entry): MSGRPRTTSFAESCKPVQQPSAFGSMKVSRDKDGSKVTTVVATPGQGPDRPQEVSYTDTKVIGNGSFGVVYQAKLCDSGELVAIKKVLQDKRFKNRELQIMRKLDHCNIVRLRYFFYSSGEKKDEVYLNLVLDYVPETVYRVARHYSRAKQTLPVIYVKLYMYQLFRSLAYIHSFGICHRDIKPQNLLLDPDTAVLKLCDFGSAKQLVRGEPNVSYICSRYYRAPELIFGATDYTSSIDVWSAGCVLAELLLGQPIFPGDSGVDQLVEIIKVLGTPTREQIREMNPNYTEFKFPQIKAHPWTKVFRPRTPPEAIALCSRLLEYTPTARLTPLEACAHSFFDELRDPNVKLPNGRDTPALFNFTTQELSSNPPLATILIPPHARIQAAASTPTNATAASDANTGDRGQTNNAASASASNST
Protocol: as §3

CDK1/cyclin B = CDK1/cyclin B (Homo sapiens, UniProt P06493); assay: Kinase assay CDK1/cyclin B; format: biochemical; settings: Table 2; read-out: Kinase Inhibition IC50 CDK1 cyclin B
Sequence of CDK1/cyclin B (P06493 whole entry): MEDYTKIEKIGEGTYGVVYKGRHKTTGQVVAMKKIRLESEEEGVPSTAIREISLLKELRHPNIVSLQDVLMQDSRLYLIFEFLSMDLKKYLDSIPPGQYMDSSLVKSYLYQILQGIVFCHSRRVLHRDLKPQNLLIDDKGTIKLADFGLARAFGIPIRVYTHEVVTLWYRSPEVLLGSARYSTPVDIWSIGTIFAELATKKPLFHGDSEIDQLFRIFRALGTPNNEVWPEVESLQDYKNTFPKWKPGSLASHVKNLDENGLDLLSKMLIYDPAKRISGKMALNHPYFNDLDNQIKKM
Sequence of CDK1/cyclin B (P14635 whole entry partner): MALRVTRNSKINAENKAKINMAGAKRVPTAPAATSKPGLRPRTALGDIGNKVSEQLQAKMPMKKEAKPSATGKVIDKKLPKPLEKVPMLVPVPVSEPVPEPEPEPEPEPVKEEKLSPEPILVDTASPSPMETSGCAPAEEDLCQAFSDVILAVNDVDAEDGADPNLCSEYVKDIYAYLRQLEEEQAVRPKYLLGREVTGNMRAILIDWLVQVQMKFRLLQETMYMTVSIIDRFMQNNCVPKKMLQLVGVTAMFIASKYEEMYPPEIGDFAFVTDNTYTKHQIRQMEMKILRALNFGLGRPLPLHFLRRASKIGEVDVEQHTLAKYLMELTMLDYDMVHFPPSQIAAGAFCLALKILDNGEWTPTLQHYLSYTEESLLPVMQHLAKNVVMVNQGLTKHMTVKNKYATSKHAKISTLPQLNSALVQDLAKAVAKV
In short: as §2

CDK2/cyclin A = CDK2/cyclin A (Homo sapiens, UniProt P24941); assay: Kinase assay CDK2/cyclin A; format: biochemical; settings: Table 2; read-out: Kinase Inhibition IC50 CDK2 cyclin A
In short: as §2

CDK9/cyclin T1 = CDK9/cyclin T1 (Homo sapiens, UniProt P50750); assay: CDK9 assay; format: biochemical; settings: Table 2; read-out: Kinase Inhibition IC50 CDK9 cyclin T1
Sequence of CDK9/cyclin T1 (P50750 whole entry): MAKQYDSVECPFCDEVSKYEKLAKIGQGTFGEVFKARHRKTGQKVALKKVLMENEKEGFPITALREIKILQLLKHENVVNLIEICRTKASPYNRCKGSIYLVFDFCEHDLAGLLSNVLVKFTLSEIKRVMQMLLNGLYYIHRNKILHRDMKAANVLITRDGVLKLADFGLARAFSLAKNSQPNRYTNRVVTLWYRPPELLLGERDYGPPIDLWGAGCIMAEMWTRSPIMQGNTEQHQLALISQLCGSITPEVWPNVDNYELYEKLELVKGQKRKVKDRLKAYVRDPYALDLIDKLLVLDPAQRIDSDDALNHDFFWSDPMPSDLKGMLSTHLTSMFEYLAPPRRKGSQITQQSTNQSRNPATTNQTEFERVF
Sequence of CDK9/cyclin T1 (O60563 whole entry partner): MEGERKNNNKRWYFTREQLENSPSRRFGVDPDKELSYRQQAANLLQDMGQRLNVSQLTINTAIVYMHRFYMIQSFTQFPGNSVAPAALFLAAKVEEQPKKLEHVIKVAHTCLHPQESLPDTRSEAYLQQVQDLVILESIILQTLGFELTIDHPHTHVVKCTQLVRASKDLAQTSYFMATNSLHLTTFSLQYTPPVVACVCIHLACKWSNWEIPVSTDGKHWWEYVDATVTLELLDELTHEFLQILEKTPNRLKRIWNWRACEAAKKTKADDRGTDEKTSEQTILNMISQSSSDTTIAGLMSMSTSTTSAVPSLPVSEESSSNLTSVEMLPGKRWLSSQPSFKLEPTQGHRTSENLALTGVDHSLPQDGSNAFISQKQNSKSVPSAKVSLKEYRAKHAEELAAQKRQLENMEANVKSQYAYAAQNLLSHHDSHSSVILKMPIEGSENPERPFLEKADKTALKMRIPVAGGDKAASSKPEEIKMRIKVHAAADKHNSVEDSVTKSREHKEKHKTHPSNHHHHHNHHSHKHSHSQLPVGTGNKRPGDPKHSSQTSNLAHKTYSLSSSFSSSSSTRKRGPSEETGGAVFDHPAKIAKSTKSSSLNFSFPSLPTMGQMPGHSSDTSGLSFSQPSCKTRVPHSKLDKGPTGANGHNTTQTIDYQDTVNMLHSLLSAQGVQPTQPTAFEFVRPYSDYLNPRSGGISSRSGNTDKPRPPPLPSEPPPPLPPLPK
In short: (§4)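 Recombinant human CDK7/cyclin H or CDK9/cyclin T1 (0.5–2 μg) phosphorylated biotinylated CTD heptapeptide-repeat substrate for 45 min at 30 °C in MOPS pH 7.2 buffer with 15 mM MgCl2 and 100 μM ATP plus [γ-32P]ATP. After avidin capture on P81 filters and phosphoric acid washes, 32P incorporation was counted by scintillation.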

CDK7/cyclin H = CDK7/cyclin H (Homo sapiens, UniProt P50613); assay: CDK7 assay; format: biochemical; settings: Table 2; read-out: Kinase Inhibition IC50 CDK7 cyclin H
Sequence of CDK7/cyclin H (P50613 whole entry): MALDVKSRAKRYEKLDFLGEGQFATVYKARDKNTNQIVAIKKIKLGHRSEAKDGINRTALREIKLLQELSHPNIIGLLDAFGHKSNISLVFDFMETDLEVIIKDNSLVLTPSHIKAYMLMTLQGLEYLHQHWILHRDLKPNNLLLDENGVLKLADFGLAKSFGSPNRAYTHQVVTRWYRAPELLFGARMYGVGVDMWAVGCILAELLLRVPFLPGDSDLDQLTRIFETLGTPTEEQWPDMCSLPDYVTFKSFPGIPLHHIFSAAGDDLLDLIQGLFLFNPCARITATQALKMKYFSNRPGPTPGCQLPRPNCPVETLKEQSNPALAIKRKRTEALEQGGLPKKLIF
In short: as §4

| IC50 (CDK4/cyclin D1) [nM] | IC50 (PLK-1) [nM] | melting point [°C] | IC50 (CDK2/cyclin E) [nM] | IC50 (GSK-3β) [nM] | IC50 (CDK1/cyclin B) [nM] | IC50 (CDK2/cyclin A) [nM] | IC50 (CDK9/cyclin T1) [nM] | IC50 (CDK7/cyclin H) [nM] | SMILES | IC50 (HT29) [nM] | IC50 (Saos-2) [nM] | IC50 (A549) [nM] |
| --- | --- | --- | --- | --- | --- | --- | --- | --- | --- | --- | --- | --- |
| 240 | > 100000 | 287 to 289 | 420 |  |  |  |  |  | CNc1nc(C)c(-c2ccnc(Nc3cccc(CN)c3)n2)s1 [Compound 67, (3-Aminomethyl-phenyl)-[4-(4-methyl-2-methylamino-thiazol-5-yl)-pyrimidin-2-yl]-amine] | 14000 | 1100 | 14000 |
| 86 |  | 216 to 218 | 140 | 2200 | 710 | 110 | 470 | 2600 | CNc1nc(C)c(-c2ccnc(Nc3ccc(CCO)cc3)n2)s1 [Compound 59, 2-{4-[4-(4-Methyl-2-methylamino-thiazol-5-yl)-pyrimidin-2-ylamino]-phenyl}-ethanol] | 1700 | 1900 | 2400 |
| 110 | > 100000 | 290 to 292 | 330 |  |  |  |  |  | CCNc1nc(C)c(-c2ccnc(Nc3cccc(CN)c3)n2)s1 [Compound 65, (3-Aminomethyl-phenyl)-[4-(2-ethylamino-4-methyl-thiazol-5-yl)-pyrimidin-2-yl]-amine] | 4800 | 650 | 3200 |
| 22 |  | 229 to 231 | 600 | > 100000 | 18000 | 68000 | 17000 | 850 | Cc1nc(N2CCOCC2)sc1-c1ccnc(Nc2ccc(N3CCOCC3)cc2)n1 [Compound 56, [4-(4-Methyl-2-morpholin-4-yl-thiazol-5-yl)-pyrimidin-2-yl]-(4-morpholin-4-yl-phenyl)-amine] | 2900 | 5000 | 4400 |

| SMILES | IC50 (CDK4/cyclin D1) [nM] | IC50 (PLK-1) [nM] | melting point [°C] | IC50 (CDK2/cyclin E) [nM] | IC50 (GSK-3β) [nM] | IC50 (CDK1/cyclin B) [nM] | IC50 (CDK2/cyclin A) [nM] | IC50 (CDK9/cyclin T1) [nM] | IC50 (CDK7/cyclin H) [nM] | IC50 (HT29) [nM] | IC50 (Saos-2) [nM] | IC50 (A549) [nM] |
| --- | --- | --- | --- | --- | --- | --- | --- | --- | --- | --- | --- | --- |
| CNc1nc(C)c(-c2ccnc(Nc3cccc(CNC(C)=O)c3)n2)s1 [Compound 63, N-{3-[4-(4-Methyl-2-methylamino-thiazol-5-yl)-pyrimidin-2-ylamino]-benzyl}-acetamide] | 7700 | 46000 | 253 to 255 |  | 8800 | 48000 | 12000 | 2700 | 20000 | 1400 | 1200 | 980 |
